Our source for the IC50 values is patent US9718780B2, “Substituted pyridines as sodium channel blockers” (priority 2012, dated 2017).

In general, IC50 refers to the point on the concentration scale where inhibition reaches its midpoint.

The experiment has as its target human Nav1.7 (Homo sapiens (Human), UniProt Q15858). The experiment can be described thus: FLIPR or FLIPR TETRA sodium dye assay with KCl and test article pre-incubation. The format is cell-based. As to conditions: read-out: Nav1.7 Activity (μM) FLIPR assay IC50 (μM) ± SEM.

human Nav1.7, sequence (Q15858 with tags, fused parts or gaps limits assumed): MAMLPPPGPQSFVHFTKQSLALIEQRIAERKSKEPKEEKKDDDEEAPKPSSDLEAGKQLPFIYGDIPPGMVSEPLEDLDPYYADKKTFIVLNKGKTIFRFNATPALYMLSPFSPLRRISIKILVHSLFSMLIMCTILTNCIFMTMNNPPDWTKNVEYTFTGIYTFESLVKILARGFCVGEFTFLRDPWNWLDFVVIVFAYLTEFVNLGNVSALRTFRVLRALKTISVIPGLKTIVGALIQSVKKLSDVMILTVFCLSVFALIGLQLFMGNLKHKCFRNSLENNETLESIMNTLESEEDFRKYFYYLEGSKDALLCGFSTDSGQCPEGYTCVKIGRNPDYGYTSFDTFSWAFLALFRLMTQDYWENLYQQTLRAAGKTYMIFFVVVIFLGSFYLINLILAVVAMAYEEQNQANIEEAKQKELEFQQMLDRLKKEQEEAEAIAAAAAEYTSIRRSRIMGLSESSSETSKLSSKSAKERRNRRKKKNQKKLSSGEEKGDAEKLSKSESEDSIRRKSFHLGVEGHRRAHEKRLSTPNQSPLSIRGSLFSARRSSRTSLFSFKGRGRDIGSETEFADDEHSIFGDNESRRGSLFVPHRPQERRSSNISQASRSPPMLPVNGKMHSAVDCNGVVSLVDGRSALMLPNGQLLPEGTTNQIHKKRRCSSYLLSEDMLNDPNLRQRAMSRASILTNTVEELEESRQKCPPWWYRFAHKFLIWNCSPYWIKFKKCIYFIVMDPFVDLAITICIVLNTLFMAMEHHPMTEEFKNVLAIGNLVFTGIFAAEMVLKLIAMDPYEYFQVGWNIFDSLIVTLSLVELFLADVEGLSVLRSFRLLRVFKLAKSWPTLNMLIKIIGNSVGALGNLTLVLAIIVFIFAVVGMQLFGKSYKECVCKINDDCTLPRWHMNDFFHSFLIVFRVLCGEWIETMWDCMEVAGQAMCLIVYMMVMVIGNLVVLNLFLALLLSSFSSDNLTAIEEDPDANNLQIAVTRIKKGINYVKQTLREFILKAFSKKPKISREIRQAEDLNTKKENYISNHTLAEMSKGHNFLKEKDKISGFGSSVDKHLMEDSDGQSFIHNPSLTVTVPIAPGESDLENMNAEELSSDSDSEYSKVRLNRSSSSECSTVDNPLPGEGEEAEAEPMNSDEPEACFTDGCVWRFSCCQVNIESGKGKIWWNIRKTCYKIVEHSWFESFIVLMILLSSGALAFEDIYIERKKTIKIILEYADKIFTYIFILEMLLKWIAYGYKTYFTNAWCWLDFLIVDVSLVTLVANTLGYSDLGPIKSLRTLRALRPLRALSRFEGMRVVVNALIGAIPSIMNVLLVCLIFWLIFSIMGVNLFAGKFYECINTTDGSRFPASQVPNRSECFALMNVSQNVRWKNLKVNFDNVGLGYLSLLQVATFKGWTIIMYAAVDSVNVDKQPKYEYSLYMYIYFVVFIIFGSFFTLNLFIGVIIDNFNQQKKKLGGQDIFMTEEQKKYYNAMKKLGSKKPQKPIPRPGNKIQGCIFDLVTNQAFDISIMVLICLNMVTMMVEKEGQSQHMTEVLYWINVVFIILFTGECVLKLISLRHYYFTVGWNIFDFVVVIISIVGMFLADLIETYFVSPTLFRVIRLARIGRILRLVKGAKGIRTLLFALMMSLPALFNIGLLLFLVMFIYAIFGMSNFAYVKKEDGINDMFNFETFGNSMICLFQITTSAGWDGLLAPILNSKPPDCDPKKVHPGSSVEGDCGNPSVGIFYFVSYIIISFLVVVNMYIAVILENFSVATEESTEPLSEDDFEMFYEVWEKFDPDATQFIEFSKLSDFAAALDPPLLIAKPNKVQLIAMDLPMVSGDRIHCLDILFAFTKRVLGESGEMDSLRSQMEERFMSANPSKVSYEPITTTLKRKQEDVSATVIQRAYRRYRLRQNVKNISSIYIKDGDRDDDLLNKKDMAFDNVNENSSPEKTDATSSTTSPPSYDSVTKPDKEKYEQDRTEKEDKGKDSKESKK

Consider `O=C(c1cccc(-c2ccc(Oc3ccc(F)cc3)cc2)n1)[C@H](O)CO` [Compound 1, (R)-1-(6-(4-(4-fluorophenoxy)phenyl)pyridin-2-yl)-2,3-dihydroxypropan-1-one], for which the 50% inhibitory concentration (IC50) is 0.133 ± 0.005 µM. In the case of `N#Cc1ccc(Oc2ccc(-c3cccc(C(=O)[C@H](O)CO)n3)cc2)cc1C(F)(F)F` [Compound 2, (R)-4-(4-(6-(2,3-dihydroxypropanoyl)pyridin-2-yl)phenoxy)-2-(trifluoromethyl)benzonitrile] it was 0.365 ± 0.065 µM; in that of `N#Cc1cc(Oc2ccc(-c3cccc(C(=O)[C@H](O)CO)n3)cc2)ccc1C(F)(F)F` [Compound 3, (R)-5-(4-(6-(2,3-dihydroxypropanoyl)pyridin-2-yl)phenoxy)-2-(trifluoromethyl)benzonitrile], 0.402 ± 0.096 µM.

In the case of `O=C(c1cccc(-c2ccc(Oc3ccc(C(F)(F)F)cc3)cc2)n1)[C@H](O)CO` [Compound 4, (R)-2,3-dihydroxy-1-(6-(4-(4-(trifluoromethyl)phenoxy)phenyl)pyridin-2-yl)propan-1-one], the IC50 stood at 0.136 ± 0.016 µM. In the case of `N#Cc1ccc(Oc2ccc(-c3cccc(C(=O)[C@H](O)CO)n3)cc2)cc1` [Compound 5, (R)-4-(4-(6-(2,3-dihydroxypropanoyl)pyridin-2-yl)phenoxy)benzonitrile] it was 0.149 ± 0.023 µM.

As to `N#Cc1cc(Oc2ccc(-c3cccc(C(O)C(N)=O)n3)cc2)ccc1C(F)(F)F` (stereo not drawn) [Compound 6, 2-(6-(4-(3-cyano-4-(trifluoromethyl)phenoxy)phenyl)pyridin-2-yl)-2-hydroxyacetamide], the IC50 stood at 0.722 ± 0.053 µM.
